Results on 9 compounds are retold here after ChEMBL document CHEMBL1629422, “Synthesis and antimicrobial evaluation of some fused heterocyclic [1,2,4]triazolo[3,4-b][1,3,4]thiadiazole derivatives” (2010).

Converted amounts (≈) assume the structure as drawn.

Common to all, as to type: functional
One experiment relates to Citrobacter freundii. Description: Antimicrobial activity against Citrobacter freundii ATCC 8090 after18 to 20 hrs by broth dilution method.
In the next experiment the test system is Bacillus cereus. Description: Antimicrobial activity against Bacillus cereus ATCC 13061 after18 to 20 hrs by broth dilution method.
A further experiment relates to Staphylococcus aureus. Put plainly: Antimicrobial activity against Staphylococcus aureus ATCC 25923 after18 to 20 hrs by broth dilution method.
The subject of the next experiment is Enterococcus faecalis. Put plainly: Antimicrobial activity against Enterococcus faecalis ATCC 29212 after18 to 20 hrs by broth dilution method.
Another experiment has as its system Acinetobacter baumannii. Description: Antimicrobial activity against Acinetobacter baumannii ATCC 19606 after18 to 20 hrs by broth dilution method.
A further experiment concerns Escherichia coli. Description: Antimicrobial activity against Escherichia coli ATCC 25922 after18 to 20 hrs by broth dilution method.
The next experiment deals with Candida albicans. Description: Antimicrobial activity against Candida albicans ATCC 90028 after 48 hrs by broth dilution method. As to conditions: ATCC 90028, 48 h.
In another experiment the test system is Pseudomonas aeruginosa. Description: Antimicrobial activity against Pseudomonas aeruginosa ATCC 27853 after18 to 20 hrs by broth dilution method.
Another experiment concerns Enterobacter cloacae. Put plainly: Antimicrobial activity against Enterobacter cloacae ATCC 49141 after18 to 20 hrs by broth dilution method.
Experiment [1] relates to Staphylococcus epidermidis. Put plainly: Antimicrobial activity against Staphylococcus epidermidis ATCC 14990 after18 to 20 hrs by broth dilution method.

As to `O=S(=O)(c1ccccc1)c1ccc(-c2nnc3sc(Nc4ccc(Br)cc4)nn23)cc1`, the minimum inhibitory concentration (MIC) came to 1020 µg/mL (≈ 2000 µM) in the experiment with Citrobacter freundii; 1020 µg/mL (≈ 2000 µM) against Bacillus cereus; 1020 µg/mL (≈ 2000 µM) with Staphylococcus aureus; 1020 µg/mL (≈ 2000 µM) against Enterococcus faecalis; 512 µg/mL (≈ 999 µM) against Acinetobacter baumannii; 256 µg/mL (≈ 500 µM) with Escherichia coli. Moreover, the minimum inhibitory concentration (MIC) in the experiment with Candida albicans was 1020 µg/mL (≈ 2000 µM); with Pseudomonas aeruginosa, 512 µg/mL (≈ 999 µM); with Enterobacter cloacae it was 512 µg/mL (≈ 999 µM); in experiment [1], 512 µg/mL (≈ 999 µM).

For the compound `COc1ccc(Nc2nn3c(-c4ccc(S(=O)(=O)c5ccccc5)cc4)nnc3s2)cc1`, the minimum inhibitory concentration (MIC) came to 256 µg/mL (≈ 552 µM) with Citrobacter freundii; 256 µg/mL (≈ 552 µM) in the experiment on Bacillus cereus; 1020 µg/mL (≈ 2210 µM) against Staphylococcus aureus; 64 µg/mL (≈ 138 µM) against Enterococcus faecalis; 128 µg/mL (≈ 276 µM) against Acinetobacter baumannii; 256 µg/mL (≈ 552 µM) in the experiment with Escherichia coli. Besides, the minimal inhibitory concentration (MIC) was found to be 256 µg/mL (≈ 552 µM) in the experiment with Candida albicans, 256 µg/mL (≈ 552 µM) with Pseudomonas aeruginosa, 256 µg/mL (≈ 552 µM) in the experiment on Enterobacter cloacae and 128 µg/mL (≈ 276 µM) in experiment [1].

As to `Cc1ccc(Nc2nn3c(-c4ccc(S(=O)(=O)c5ccccc5)cc4)nnc3s2)cc1`, the MIC was found to be 1020 µg/mL (≈ 2290 µM) in the experiment with Citrobacter freundii; 1020 µg/mL (≈ 2290 µM) with Bacillus cereus; 1020 µg/mL (≈ 2290 µM) in the experiment on Staphylococcus aureus; 512 µg/mL (≈ 1140 µM) in the experiment on Enterococcus faecalis; 128 µg/mL (≈ 286 µM) against Acinetobacter baumannii; 256 µg/mL (≈ 572 µM) with Escherichia coli. The minimal inhibitory concentration (MIC) in the experiment on Candida albicans is 256 µg/mL (≈ 572 µM); in the experiment on Pseudomonas aeruginosa it was 512 µg/mL (≈ 1140 µM); in the experiment on Enterobacter cloacae, 512 µg/mL (≈ 1140 µM); in experiment [1] it was 512 µg/mL (≈ 1140 µM).

Turning to `O=S(=O)(c1ccc(Br)cc1)c1ccc(-c2nnc3sc(Nc4ccc(Br)cc4)nn23)cc1`, the MIC in the experiment on Citrobacter freundii worked out at 1020 µg/mL (≈ 1730 µM); with Bacillus cereus it was 1020 µg/mL (≈ 1730 µM); against Staphylococcus aureus, 512 µg/mL (≈ 866 µM); in the experiment with Enterococcus faecalis, 128 µg/mL (≈ 216 µM); against Acinetobacter baumannii, 512 µg/mL (≈ 866 µM); with Escherichia coli it was 128 µg/mL (≈ 216 µM). For the same compound, the MIC worked out at 128 µg/mL (≈ 216 µM) against Candida albicans, 512 µg/mL (≈ 866 µM) in the experiment with Pseudomonas aeruginosa, 512 µg/mL (≈ 866 µM) in the experiment with Enterobacter cloacae and 512 µg/mL (≈ 866 µM) in experiment [1].

In the case of `COc1ccc(Nc2nn3c(-c4ccc(S(=O)(=O)c5ccc(Br)cc5)cc4)nnc3s2)cc1`, the MIC against Citrobacter freundii turned out to be 256 µg/mL (≈ 472 µM); in the experiment with Bacillus cereus, 1020 µg/mL (≈ 1890 µM); against Staphylococcus aureus it was 512 µg/mL (≈ 944 µM); against Enterococcus faecalis, 128 µg/mL (≈ 236 µM); in the experiment on Acinetobacter baumannii it was 128 µg/mL (≈ 236 µM); in the experiment with Escherichia coli, 256 µg/mL (≈ 472 µM). In addition, the MIC in the experiment on Candida albicans was 128 µg/mL (≈ 236 µM); with Pseudomonas aeruginosa, 256 µg/mL (≈ 472 µM); in the experiment on Enterobacter cloacae it was 256 µg/mL (≈ 472 µM); in experiment [1], 128 µg/mL (≈ 236 µM).

Regarding `Cc1ccc(Nc2nn3c(-c4ccc(S(=O)(=O)c5ccc(Br)cc5)cc4)nnc3s2)cc1`, the minimum inhibitory concentration (MIC) in the experiment on Citrobacter freundii amounted to 1020 µg/mL (≈ 1950 µM); against Bacillus cereus, 1020 µg/mL (≈ 1950 µM); in the experiment on Staphylococcus aureus it was 512 µg/mL (≈ 973 µM); in the experiment with Enterococcus faecalis it was 512 µg/mL (≈ 973 µM); against Acinetobacter baumannii, 1020 µg/mL (≈ 1950 µM); in the experiment with Escherichia coli, 256 µg/mL (≈ 486 µM). In addition, the MIC came out at 128 µg/mL (≈ 243 µM) in the experiment with Candida albicans, 512 µg/mL (≈ 973 µM) against Pseudomonas aeruginosa, 512 µg/mL (≈ 973 µM) in the experiment on Enterobacter cloacae and 1020 µg/mL (≈ 1950 µM) in experiment [1].

In the experiment on Candida albicans, `C[C@@H]1[C@H](O)[C@@H](C)/C=C/C=C/C=C/C=C/C=C/C=C/C=C/[C@H](O[C@@H]2O[C@H](C)[C@@H](O)[C@H](N)[C@@H]2O)C[C@@H]2O[C@](O)(C[C@@H](O)C[C@@H](O)[C@H](O)CC[C@@H](O)C[C@@H](O)CC(=O)O[C@H]1C)C[C@H](O)[C@H]2C(=O)O` [AMPHOTERICIN B] gave a minimal inhibitory concentration (MIC) of 2 µg/mL (≈ 2.16 µM).

In the case of `CC1(C)S[C@@H]2[C@H](NC(=O)[C@H](N)c3ccccc3)C(=O)N2[C@H]1C(=O)O` [AMPICILLIN], the MIC (in the experiment with Bacillus cereus; in the experiment on Staphylococcus aureus; against Enterococcus faecalis; in experiment [1]) was less than 2 µg/mL each time.

Take `C[C@H]1[C@H](NC(=O)/C(=N\OC(C)(C)C(=O)O)c2csc(N)n2)C(=O)N1S(=O)(=O)O` [AZTREONAM]: the minimal inhibitory concentration (MIC) is less than 2 µg/mL against Citrobacter freundii, less than 2 µg/mL with Acinetobacter baumannii, less than 2 µg/mL with Escherichia coli and 4 µg/mL (≈ 9.19 µM) against Pseudomonas aeruginosa.
